US20140039044A1, “Hydroxylated Polymethoxyflavone Compositions” (WLLGEN, INC., priority 2006, published 2014)
Read-outs that look alike come from different tables or passages of the source.

Tests used:
Format in all cases: cell-based, human
[1] = tested on: AGS cells; experiment: Cell survival assay (antiproliferative IC50); settings: AGS cells, read-out: Antiproliferative IC50
Description: (§1) Human colon carcinoma COLO205 and HT-29 cell lines (American Type Culture Collection (ATTC), Manassas, Va.) and the leukemia cell line HL-60 were maintained at 37° C. in 5% CO2 air in RPMI 1640 medium supplemented with 10% heat-inactivated fetal bovine serum (Gibco BRL, Grand Island, N.Y.), 100 units/mL penicillin, 100 μg/mL streptomycin and 2 mM 1-glutamine. The human gastric carcinoma AGS cell line (CCRC 60102), obtained from the Food Industry Research and Development Institute (Hsinchu, Taiwan), was maintained as described above, except that DMEM/F 12 was used as the medium rather than the RPMI 1640 medium. The human breast carcinoma MCF-7 cell line MCF-7 (ATTC) was cultured in RPMI 1640 medium supplemented with 5% fetal calf serum at 37° C. in a humidified atmosphere of 5% CO2 in air. The mouse macrophage cell line RAW 264.7 was maintained in RPMI 1640 supplemented with 100 U/ml penicillin, 100 μg/ml streptomycin, and 10% heat-inactivated fetal calf serum.
(§2) Cancer cells (2×10^5) were plated in 12-well Petri dishes. The next day, the medium was changed and treated with different concentration of the test compounds or compositions for 24 h. Where individual compounds were to be tested, stock solutions of the compound was prepared to contain 200 μM of the individual hydroxylated or non-hydroxylated PMF in dimethylsulfoxide (DMSO). Control cells were treated with DMSO to a final concentration of 0.05% (v/v). Depending on the objective of the particular experiment, cells were treating with test compound or composition for 1, 3 or 6 days. At the end of incubation, cells were harvested for cell count using a hemocytometer and measuring the cellular total nucleic acid content with the CyQUANT Cell Proliferation Assay Kit (Molecular Probes).
(§3) 1 N PMF and 6 N PMF compositions containing hydroxylated PMFs, prepared as described in Section 8.3 above, 70% PMF OPE and 5,6,7,8,3′,4′-hexamethoxyflavone (nobiletin) were tested for antiproliferative activity and apoptosis-inducing activity in HL-60, AGS and COLO205 cells as described in Section 8.4 above. Antiproliferative and apoptosis-inducing activities were derived as IC50 values and AC50, values, respectively, where AC50 is the concentration required for 50% apoptosis.
(§4) The PMF compounds were assayed in vitro for cell growth inhibition and for their ability to induce apoptosis in various human cancer cells, including HL-60, AGS, COLO 205, and HT-29 cells, using methods described in Section 8.4 above. Antiproliferative (IC50) and apoptosis-inducing activity (AC50) of PMFs in the HL-60, AGS, COLO 205, and HT-29 cells are reported in Table 9, where *P<0.05, **P<0.01 and ***P<0.001 indicate statistically significant differences from the control group.

[2] = tested on: COLO205 cells; experiment: Cell survival assay (antiproliferative IC50); settings: COLO205 cells, read-out: Antiproliferative IC50
Description: as §1, §2, §3, §4

[3] = tested on: HL-60 cells; experiment: Cell survival assay (antiproliferative IC50); settings: HL-60 cells, read-out: Antiproliferative IC50
Description: as §1, §2, §3, §4

[4] = tested on: HT-29 cells; experiment: Cell survival assay (antiproliferative IC50)
Description: as §1, §2, §4

[5] = tested on: AGS cells; experiment: Cell cycle distribution by flow cytometry; settings: 24 h
Description: (§5) The human cancer cells (2×10^5) were cultured in 60-mm Petri dishes and incubated for 24 h. After treated with test compounds for 24 h, the cells were then harvested, washed with PBS resuspended in 200 μL of PBS, and fixed in 800 μL of iced 100% ethanol at −20° C. After being left to stand overnight, the cell pellets were collected by centrifugation, resuspended in 1 mL of hypotonic buffer (0.5% Triton X-100 in PBS and 0.5 μg/mL RNase) and incubated at 37° C. for 30 min. Next, 1 mL of propidium iodide solution (50 μg/mL) was added, and the mixture was allowed to stand on ice for 30 min. Fluorescence emitted from the propidium iodide-DNA complex was quantitated after excitation of the fluorescent dye by FACScan cytometry (Becton Dickinson, San Jose, Calif.).
(§6) The effects of the hydrolyzed PMF-enriched compositions, nobiletin and 70% PMF OPE on cell cycle distribution were studied, following the procedures described in Section 8.4. Results for cell cycle distribution in HL-60 cells, COLO205 cells and AGS cells are provided in Table 5, Table 6 and Table 7, respectively. […] In HL-60 cells, G2/M arrest predominated in cells treated with 6N PMF concentrations ≧5 μM and with 1N PMF concentrations ≧25 μM.
(§7) Compounds A-K were evaluated in terms of their effects in arresting cell cycle progression by observing cell cycle phase distribution in cells treated with the compounds. Cells were treated with 5, 10, 25, 50, and 100 μM of one of compound A-K or DMSO (control) for 24 h and subjected to flow cytometric analysis after staining their DNA, as described above.
(§8) Similar cell cycle phase distribution studies were performed in AGS, COLO205, and HT-29 cells in response to individual PMFs, with results reported in Tables 11, 12 and 13, respectively.

[6] = tested on: COLO205 cells; experiment: Cell cycle distribution by flow cytometry; settings: 24 h; for Cell Cycle Distribution G0/G1 / Cell Cycle Distribution G2/M / Cell Cycle Distribution S: COLO205 cells
Description: as §5, §6, §7, §8

COc1ccc(-c2oc3c(OC)c(OC)c(OC)c(OC)c3c(=O)c2O)cc1OC [B, 3-hydroxy-5,6,7,8,3′,4-hexamethoxyflavone]
IC50 [1]: 72.3 ± 7.91 µM
IC50 [2]: 23.3 ± 1.56 µM
IC50 [3]: > 100 µM
IC50 [4]: 63.63 ± 0.49 µM
Cell Cycle Distribution G0/G1 ([5]; 5 μM, Table 11): 47.1 ± 1.27
Cell Cycle Distribution G2/M ([5]; 5 μM, Table 11): 5.6 ± 0.28
Cell Cycle Distribution S ([5]; 5 μM, Table 11): 45.8 ± 1.20
Cell Cycle Distribution G0/G1 ([5]; 10 μM, Table 11): 46.7 ± 0.92
Cell Cycle Distribution G2/M ([5]; 10 μM, Table 11): 10.4 ± 0.07
Cell Cycle Distribution S ([5]; 10 μM, Table 11): 44.1 ± 0.57
Cell Cycle Distribution G0/G1 ([5]; 25 μM, Table 11): 39.8 ± 0.78
Cell Cycle Distribution G2/M ([5]; 25 μM, Table 11): 6.5 ± 0.07
Cell Cycle Distribution S ([5]; 25 μM, Table 11): 54.2 ± 0.28
Cell Cycle Distribution G0/G1 ([5]; 50 μM, Table 11): 43.1 ± 1.56
Cell Cycle Distribution G2/M ([5]; 50 μM, Table 11): 7.4 ± 0.42
Cell Cycle Distribution S ([5]; 50 μM, Table 11): 51.2 ± 1.06
Cell Cycle Distribution G0/G1 ([5]; 100 μM, Table 11): 46.8 ± 0.28
Cell Cycle Distribution G2/M ([5]; 100 μM, Table 11): 9.3 ± 0.42
Cell Cycle Distribution S ([5]; 100 μM, Table 11): 44.5 ± 0.14
Cell Cycle Distribution G0/G1 ([6]; 5 μM, Table 12): 63.59 ± 0.48
Cell Cycle Distribution G2/M ([6]; 5 μM, Table 12): 0.89 ± 0.94
Cell Cycle Distribution S ([6]; 5 μM, Table 12): 35.53 ± 0.46
Cell Cycle Distribution G0/G1 ([6]; 10 μM, Table 12): 63.12 ± 0.20
Cell Cycle Distribution G2/M ([6]; 10 μM, Table 12): 5.63 ± 0.28
Cell Cycle Distribution S ([6]; 10 μM, Table 12): 31.25 ± 0.48
Cell Cycle Distribution G0/G1 ([6]; 25 μM, Table 12): 64.96 ± 0.99
Cell Cycle Distribution G2/M ([6]; 25 μM, Table 12): 0.41 ± 0.31
Cell Cycle Distribution S ([6]; 25 μM, Table 12): 34.63 ± 0.68
Cell Cycle Distribution G0/G1 ([6]; 50 μM, Table 12): 63.32 ± 0.52
Cell Cycle Distribution G2/M ([6]; 50 μM, Table 12): 0.31 ± 0.11
Cell Cycle Distribution S ([6]; 50 μM, Table 12): 36.39 ± 0.62
Cell Cycle Distribution G0/G1 ([6]; 100 μM, Table 12): 78.51 ± 0.63
Cell Cycle Distribution G2/M ([6]; 100 μM, Table 12): 3.99 ± 0.95
Cell Cycle Distribution S ([6]; 100 μM, Table 12): 17.51 ± 1.58

COc1ccc(-c2cc(=O)c3c(OC)c(OC)c(OC)c(OC)c3o2)cc1OC [Compound A, 5,6,7,8,3′,4′-hexamethoxyflavone, reference compound]
IC50 ([1]; Homo sapiens, Table 4): > 100 µg/mL
IC50 ([1]; Homo sapiens): > 100 µM
IC50 ([2]; Homo sapiens, COLO 205, Table 4): 66.7 ± 0.73 µg/mL
IC50 ([2]; Homo sapiens, COLO 205): 38 ± 1.4 µM
IC50 ([3]; Homo sapiens, Table 4): > 100 µg/mL
IC50 ([3]; Homo sapiens): > 100 µM
IC50 ([4]; Homo sapiens): > 100 µM
Cell Cycle Distribution G0/G1 ([5]; 5 μM, Table 7): 58.67 ± 0.61
Cell Cycle Distribution G2/M ([5]; 5 μM, Table 7): 13.50 ± 1.34
Cell Cycle Distribution S ([5]; 5 μM, Table 7): 27.84 ± 1.94
Cell Cycle Distribution G0/G1 ([5]; 5 μM, Table 11): 44.7 ± 0.71
Cell Cycle Distribution G2/M ([5]; 5 μM, Table 11): 0.4 ± 0.57
Cell Cycle Distribution S ([5]; 5 μM, Table 11): 54.4 ± 0.64
Cell Cycle Distribution G0/G1 ([5]; 10 μM, Table 7): 59.74 ± 0.36
Cell Cycle Distribution G2/M ([5]; 10 μM, Table 7): 13.57 ± 1.23
Cell Cycle Distribution S ([5]; 10 μM, Table 7): 26.70 ± 0.87
Cell Cycle Distribution G0/G1 ([5]; 10 μM, Table 11): 47.1 ± 0.28
Cell Cycle Distribution G2/M ([5]; 10 μM, Table 11): 5.0 ± 0.64
Cell Cycle Distribution S ([5]; 10 μM, Table 11): 49.1 ± 0.64
Cell Cycle Distribution G0/G1 ([5]; 25 μM, Table 7): 59.56 ± 1.98
Cell Cycle Distribution G2/M ([5]; 25 μM, Table 7): 13.50 ± 0.35
Cell Cycle Distribution S ([5]; 25 μM, Table 7): 26.95 ± 2.33
Cell Cycle Distribution G0/G1 ([5]; 25 μM, Table 11): 52.9 ± 1.06
Cell Cycle Distribution G2/M ([5]; 25 μM, Table 11): 2.8 ± 0.35
Cell Cycle Distribution S ([5]; 25 μM, Table 11): 43.7 ± 0.42
Cell Cycle Distribution G0/G1 ([5]; 50 μM, Table 7): 56.45 ± 0.03
Cell Cycle Distribution G2/M ([5]; 50 μM, Table 7): 15.25 ± .33
Cell Cycle Distribution S ([5]; 50 μM, Table 7): 28.31 ± 0.36
Cell Cycle Distribution G0/G1 ([5]; 50 μM, Table 11): 53.8 ± 0.64
Cell Cycle Distribution G2/M ([5]; 50 μM, Table 11): 6.6 ± 0.69
Cell Cycle Distribution S ([5]; 50 μM, Table 11): 41.3 ± 0.92
Cell Cycle Distribution G0/G1 ([5]; 100 μM, Table 7): 46.13 ± 4.96
Cell Cycle Distribution G2/M ([5]; 100 μM, Table 7): 15.54 ± 1.10
Cell Cycle Distribution S ([5]; 100 μM, Table 7): 28.33 ± 3.86
Cell Cycle Distribution G0/G1 ([5]; 100 μM, Table 11): 66.9 ± 0.14
Cell Cycle Distribution G2/M ([5]; 100 μM, Table 11): 3.2 ± 0.57
Cell Cycle Distribution S ([5]; 100 μM, Table 11): 31.0 ± 0.64
Cell Cycle Distribution G0/G1 ([6]; 5 μM, Table 6): 63.83 ± 0.29
Cell Cycle Distribution G2/M ([6]; 5 μM, Table 6): 8.25 ± 0.69
Cell Cycle Distribution S ([6]; 5 μM, Table 6): 27.93 ± 0.98
Cell Cycle Distribution G0/G1 ([6]; 5 μM, Table 12): 63.63 ± 0.53
Cell Cycle Distribution G2/M ([6]; 5 μM, Table 12): 1.58 ± 0.04
Cell Cycle Distribution S ([6]; 5 μM, Table 12): 34.80 ± 0.57
Cell Cycle Distribution G0/G1 ([6]; 10 μM, Table 6): 71.13 ± 0.65
Cell Cycle Distribution G2/M ([6]; 10 μM, Table 6): 7.42 ± 0.48
Cell Cycle Distribution S ([6]; 10 μM, Table 6): 21.45 ± 0.17
Cell Cycle Distribution G0/G1 ([6]; 10 μM, Table 12): 67.25 ± 0.38
Cell Cycle Distribution G2/M ([6]; 10 μM, Table 12): 0.25 ± 0.25
Cell Cycle Distribution S ([6]; 10 μM, Table 12): 32.50 ± 0.13
Cell Cycle Distribution G0/G1 ([6]; 25 μM, Table 6): 84.21 ± 4.38
Cell Cycle Distribution G2/M ([6]; 25 μM, Table 6): 4.50 ± 0.35
Cell Cycle Distribution S ([6]; 25 μM, Table 6): 14.29 ± 0.22
Cell Cycle Distribution G0/G1 ([6]; 25 μM, Table 12): 69.94 ± 1.02
Cell Cycle Distribution G2/M ([6]; 25 μM, Table 12): 0.64 ± 0.07
Cell Cycle Distribution S ([6]; 25 μM, Table 12): 27.42 ± 1.09
Cell Cycle Distribution G0/G1 ([6]; 50 μM, Table 6): 76.82 ± 1.48
Cell Cycle Distribution G2/M ([6]; 50 μM, Table 6): 6.30 ± 0.08
Cell Cycle Distribution S ([6]; 50 μM, Table 6): 16.89 ± 1.39
Cell Cycle Distribution G0/G1 ([6]; 50 μM, Table 12): 82.40 ± 0.63
Cell Cycle Distribution G2/M ([6]; 50 μM, Table 12): 0.29 ± 0.08
Cell Cycle Distribution S ([6]; 50 μM, Table 12): 17.50 ± 0.45
Cell Cycle Distribution G0/G1 ([6]; 100 μM, Table 6): 77.12 ± 2.00
Cell Cycle Distribution G2/M ([6]; 100 μM, Table 6): 5.11 ± .46
Cell Cycle Distribution S ([6]; 100 μM, Table 6): 17.74 ± 2.40
Cell Cycle Distribution G0/G1 ([6]; 100 μM, Table 12): 65.60 ± 0.65
Cell Cycle Distribution G2/M ([6]; 100 μM, Table 12): 6.20 ± 1.25
Cell Cycle Distribution S ([6]; 100 μM, Table 12): 28.21 ± 0.60
Cell cycle arrest, in words ([6]; COLO 205 cells, compound A 50 μM, compound I 100 μM): trends in G1 arrest
